From ChEMBL document CHEMBL1158676, “Aurilol, a Cytotoxic Bromotriterpene Isolated from the Sea Hare Dolabella auricularia” (J Nat Prod, 1998)
Converted amounts (≈) assume the structure as drawn.

Experiment: Cytotoxicity against human HeLaS3 cells
Format: functional, cell-based
Details: HeLa S3

Compound `CC(C)(O)[C@H](O)CC[C@@](C)(O)[C@@H]1CC[C@](C)([C@@H]2CC[C@@H]([C@@]3(C)CC[C@@H]4OC(C)(C)[C@H](Br)CC[C@@]4(C)O3)O2)O1` [AURILOL] has an IC50 of 4.3 µg/mL (≈ 7.1 µM).
